What was measured:
[1] = biological target: T1, lysyl oxidase (Bos taurus, UniProt P33072); experiment: Test for lysyl oxidase-inhibitory effect (homovanillic acid/horseradish peroxidase fluorescence); assay type: biochemical; conditions: enzyme from bovine aortas, 15 minutes preincubation, pH 8.2; read-out: IC50 (inhibition of lysyl oxidase)
T1 construct: The enzyme was isolated from bovine aortas; from tissue; host or cells: bovine aorta
T1 sequence (P33072 170-418): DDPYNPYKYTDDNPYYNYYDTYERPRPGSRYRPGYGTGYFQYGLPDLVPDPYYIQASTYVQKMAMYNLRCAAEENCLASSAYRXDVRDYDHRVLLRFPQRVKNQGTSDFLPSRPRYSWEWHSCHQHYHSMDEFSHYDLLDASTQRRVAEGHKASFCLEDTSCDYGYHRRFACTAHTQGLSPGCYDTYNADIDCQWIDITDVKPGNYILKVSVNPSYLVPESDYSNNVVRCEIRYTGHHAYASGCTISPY
Procedure: 1. Test for Lysyl Oxidase-inhibitory Effect:
The enzyme was isolated from bovine aortas in a modification of a method of Kagan et al. [Biochem. J. 177, 203-214 (1979)] by extraction with phosphate buffer containing urea, followed by precipitation and chromatography on DEAE-Sephadex.
The test solution (total volume 200 μl) is composed of 1.5 mM homovanillinic acid, 5 mM 1,5-diaminopentane, 1 unit of horseradish peroxidase and 1.5 M urea in 50 mM sodium borate buffer of pH 8.2. The enzyme was preincubated with the compound to be tested for 15 minutes; the reaction was started by adding diaminopentane and homovanillin/horseradish peroxidase. The fluorescence of the homovanillin dimer which formed was measured with excitation at 315 nm and emission at 425 nm. This test arrangement is a modification of the method of Trackman et al. [Anal. Biochem. 113, 336-341 (1981)].
The IC50 as a measure of the inhibition of lysyl oxidase is found by testing various concentrations of substance and using the concentration-effect plots.

[2] = system: serum-induced hepatic fibrosis in rats; experiment: Model of serum-induced hepatic fibrosis, liver collagen content (4-hydroxyproline); assay type: in vivo, rat; conditions: serum-treated female Sprague-Dawley rats, 3 mg/kg p.o. o.d.; vehicle 2.070, intact 0.577; P <0.01
Procedure: c) Model of Serum-induced Hepatic Fibrosis: A septal fibrosis can be induced in rats also by repeated injection of heterologous serum. For this purpose, 0.5 ml of sterile-filtered porcine serum is administered i.p. to each animal twice a week [Bhunchet and Wake, Hepatology 16, 1452-73 (1992)]. The experiments were carried out with female Sprague-Dawley rats (200-220 g). After 6-8 weeks, the septal fibrosis is histologically manifest and can also be detected through an increase in the liver hydroxyproline content. b) Collagen Content: The total collagen content was estimated by means of the tissue 4-hydroxyproline concentration. The method of Prockop and Udenfried [D. J. Prockop and S. Udenfried, A specific method for the analysis of hydroxyproline in tissues and urine, Anal. Biochem. 1, 228-239 (1960)] in modified form was used: liver samples with a wet weight of 60-90 mg were dried and then hydrolyzed in 6 N hydrochloric acid at 100° C. for 17 hours. The hydrolyzate was dried by evaporation and reconstituted in 5 ml of deionized water. […] After incubation at 35° C. for 3 hours, the absorption was measured at 573 nm. […]

[3] = system: hepatic fibrosis following bile duct ligature in rats; experiment: Model of bile duct ligature, histological morphometry (picrosirius red); assay type: in vivo, rat; conditions: 15 mg/kg p.o. b.i.d.
Procedure: b) Model of Bile Duct Ligature:
The experiments were carried out with female Sprague-Dawley rats (200-220 g). In order to generate chronic fibrosis, the bile duct (common hepatic duct) was doubly ligated in a surgical procedure. Ethibloc® occlusion emulsion (Ethicon, Norderstedt, Germany), a mixture of prolamine and ethanol, was instilled retrogradely into the biliary system [J. Kountouras, B. Billing, P. Scheuer, Prolonged bile obstruction: A new experimental model for cirrhosis in the rat, Br. J. Exp. Pathol. 65, 305-311 (1984); G. Boigk, L. Stroedter, H. Herbst, J. Waldschmidt, E. O. Riecken, D. Schuppan, Silymarin retards collagen accumulation in early and advanced biliary fibrosis secondary to complete bile duct obliteration in rats, Hepatology 26, 643-649 (1997)]. […] The animals were sacrificed and investigated three weeks after the surgical procedure.
a) Histological Assessments/Morphometry:
Standardized transverse cylinders of liver tissue (approx. 10×2 mm) were cut out of the right anterior lobe of each rat liver. Frozen sections were stained with 0.1% picrosirius red solution to detect scar collagen associated with hepatic fibrosis. The contrast was increased by counterstaining with fast green. The extent of hepatic fibrosis was found as a percentage of the part stainable with picrosirius red in each section. […]

[4] = system: hepatic fibrosis resulting from chronic administration of carbon tetrachloride in rats; experiment: Model of chronic carbon tetrachloride intoxication, liver collagen content (4-hydroxyproline); assay type: in vivo, rat; conditions: CCl4-treated female Sprague-Dawley rats, 30 mg/kg p.o. o.d., 6 weeks; vehicle 1.921, intact 0.504; P =0.059 vs. vehicle
From the text: a) Model of Chronic Carbon Tetrachloride Intoxication:
Chronic carbon tetrachloride (CCl4) treatment is a standard method for generating hepatic fibrosis of nonviral origin and subsequent cirrhosis. It is generally accepted as a model of hepatic fibrosis and cirrhosis in humans [E. McLean, A. McLean, P. Sutton, Instant Fibrosis: An improved method for producing cirrhosis of the liver in rats by simultaneous administration of carbon tetrachloride and phenobarbitone, Br. J. Exp. Pathol. 50, 502-506 (1969)].
Female Sprague-Dawley rats (200-220 g) were employed. In order to achieve maximum microsomal metabolization of the CCl4, the animals received isoniazid in the drinking water (1 g/l) for one week before starting the administration of carbon tetrachloride. CCl4 was administered orally each fifth day in a dose of 0.2 ml/100 g of bodyweight in a 1:1 mixture with mineral oil. […] Necropsy was performed 6 weeks after starting the treatment.
The total collagen content was estimated by means of the tissue 4-hydroxyproline concentration. […] After incubation at 35° C. for 3 hours, the absorption was measured at 573 nm. […]

| melting point [°C] | IC50 [1] [nM] | SMILES | other results |
| --- | --- | --- | --- |
| 188 | – | O=c1c(Oc2ccc(-n3cccc3)cc2)c(-n2ccnc2)cnn1-c1ccc(Cl)cc1 [compound 78] | – |
| 177 | – | Cc1ccc(-n2ncc(-n3ccnc3)c(Oc3ccc(-c4ccccc4)cc3)c2=O)cc1 [compound 77] | – |
| 220 | – | Cc1ccc(-n2ncc(-n3ccnc3)c(Oc3ccc(-c4ccc(C#N)cc4)cc3)c2=O)cc1 [compound 76] | – |
| 151 | – | CCOC(=O)c1ccc(-n2ncc(-n3ccnc3)c(Oc3ccc(-c4ccccc4)cc3)c2=O)cc1 [compound 72] | – |
| – | 7 | O=c1c(Oc2ccc(-c3ccc(O)cc3)cc2)c(-n2ccnc2)cnn1-c1ccc(Cl)cc1 [Ex. 81] | – |
| 180 | – | CS(=O)(=O)Nc1ccc(-c2ccc(Oc3c(-n4ccnc4)cnn(-c4ccc(Cl)cc4)c3=O)cc2)cc1 [compound 83] | – |
| 119 | – | O=c1c(Oc2ccc(-c3ccccc3)cc2)c(-n2ccnc2)cnn1-c1ccc(F)cc1 [compound 74] | – |
| 276 | – | N#Cc1ccc(-c2ccc(Oc3c(-n4ccnc4)cnn(-c4ccc(Cl)cc4)c3=O)cc2)cc1 [compound 80] | – |
| – | 11 | O=c1c(Oc2ccc(-c3ccccc3)cc2)c(-n2ccnc2)cnn1-c1ccc(Cl)cc1 [Ex. 82] | Proportionate area stainable with picrosirius red: average in % ([3]; bile duct ligated female Sprague-Dawley rats, three weeks, vehicle 7.4, sham 0.21, P <0.05 vs. vehicle): 4.98%; inhibition in fibrosis ([3]; bile duct ligated rats, worked out from Table 2): approx. 34%; 4-Hydroxyproline content: average in mg/g dry weight [4]: 1.260 mg/g dry weight |

The next lines start with the molecule.

| SMILES | melting point [°C] | IC50 [1] [nM] | other results |
| --- | --- | --- | --- |
| O=c1c(Oc2ccc(-c3ccccc3)cc2)c(-n2ccnc2)cnn1-c1cccc(F)c1 [compound 73] | 148 | – | – |
| O=c1c(Oc2ccc(-c3ccccc3)cc2)c(N2CCNCC2)cnn1-c1ccc(Cl)cc1 [Ex. 12, 4-(1,1′-Biphenyl-4-yloxy)-2-(4-chlorophenyl)-5-(1-piperazinyl)-3(2H)-pyridazinone] | – | 3 | – |
| CCOc1c(N2CCOCC2)cnn(C)c1=O [4-ethoxy-2-methyl-5-morpholino-3(2H)-pyridazinone, reference compound] | – | > 4000 | – |
| O=c1c(Oc2ccc(-c3ccc(F)cc3)cc2)c(N2CCC(CO)CC2)cnn1-c1ccc(Cl)cc1 [Ex. 25, 2-(4-Chlorophenyl)-4-[(4′-fluoro-1,1′-biphenyl-4-yl)oxy]-5-[4-(hydroxymethyl)-1-piperidinyl]-3(2H)-pyridazinone] | – | 5 | – |
| N#CCCN [β-Aminopropionitrile (BAPN), reference compound] | – | 10000 | – |
| CN1CCN(c2cnn(-c3ccc(Cl)cc3)c(=O)c2Oc2ccc(-c3ccccc3)cc2)CC1.Cl [Ex. 34] | 162 | 9 | 4-Hydroxyproline content: average in mg/g dry weight [2]: 1.293 mg/g dry weight |
| CCN1CCN(c2cnn(-c3ccc(C)cc3)c(=O)c2Oc2ccc(-c3ccc(O)cc3)cc2)CC1 [Ex. 5, 5-(4-Ethyl-1-piperazinyl)-4-[(4′-hydroxy-1,1′-biphenyl-4-yl)oxy]-2-(4-methylphenyl)-3(2H)-pyridazinone] | – | 17 | – |
| CS(=O)(=O)N1CCN(c2cnn(-c3ccc(Cl)cc3)c(=O)c2Oc2ccc(-c3ccc(F)c(CN)c3)cc2)CC1 [Ex. 8, 4-{[3′-(Aminomethyl)-4′-fluoro-1,1′-biphenyl-4-yl]oxy}-2-(4-chlorophenyl)-5-[4-(methylsulfonyl)-1-piperazinyl]-3(2H)-pyridazinone] | – | 7 | – |
| CC(=O)NCc1cc(-c2ccc(Oc3c(N4CCNCC4)cnn(-c4ccc(Cl)cc4)c3=O)cc2)ccc1F [Ex. 176] | – | 10 | – |
| O=c1c(Oc2ccc(-c3ccc(F)cc3)cc2)c(-n2ccnc2)cnn1-c1ccc([N+](=O)[O-])cn1 [compound 71] | 186 | – | – |

Source: patent US7320977B2, “Substituted 2-phenyl-3(2h)-pyridazinones” (Bayer Healthcare AG, priority 2002, dated 2008)
